Measurements published in the NIST ThermoML archive (doi:10.1016/j.jct.2012.09.004).
± gives the expanded uncertainty stated by the source.

Columns and labels:
[1] = Pendant drop shape
[2] = refractive index (Na D-line) (dimensionless); details: 101.33 kPa, Liquid, Standard Abbe refractometry
[3] = refractive index (Na D-line) (dimensionless); wn = mass fraction of the nth substance listed; details: 101 kPa, Liquid, Standard Abbe refractometry
[4] = wn = mass fraction of the nth substance listed; details: Pendant drop shape

Row | Compound | refractive index ([2]; 283.15 K) | refractive index ([2]; 288.15 K) | refractive index ([2]; 293.15 K) | refractive index ([2]; 298.15 K) | refractive index ([2]; 303.15 K) | refractive index ([2]; 308.15 K) | refractive index ([2]; 313.15 K) | refractive index ([2]; 318.15 K) | refractive index ([2]; 323.15 K) | refractive index ([2]; 328.15 K) | refractive index ([2]; 333.15 K) | refractive index ([2]; 338.15 K) | refractive index ([2]; 343.15 K) | refractive index ([2]; 348.15 K) | refractive index ([2]; 353.15 K) | surface tension liquid-gas ([1]; 318 K) [mN/m] | further results
1 | CCCCCCCCCCCCCC[P+](CCCCCC)(CCCCCC)CCCCCC.O=S(=O)([N-]S(=O)(=O)C(F)(F)F)C(F)(F)F | 1.45436 ± 0.00037 | 1.45279 ± 0.00037 | 1.4512 ± 0.00037 | 1.4496 ± 0.00037 | 1.44797 ± 0.00037 | 1.44637 ± 0.00037 | 1.44476 ± 0.00037 | 1.44317 ± 0.00037 | 1.44158 ± 0.00037 | 1.43948 ± 0.00037 | 1.43836 ± 0.00037 | 1.43681 ± 0.00037 | 1.43524 ± 0.00037 | 1.4337 ± 0.00037 | 1.43213 ± 0.00037 | – | surface tension liquid-gas ([1]; 298.2 K): 30.1 ± 0.3 mN/m; surface tension liquid-gas ([1]; 307.9 K): 29.5 ± 0.3 mN/m; surface tension liquid-gas ([1]; 317.9 K): 28.7 ± 0.4 mN/m; surface tension liquid-gas ([1]; 327.9 K): 28.1 ± 0.3 mN/m; surface tension liquid-gas ([1]; 337.8 K): 27.5 ± 0.4 mN/m; surface tension liquid-gas ([1]; 343.2 K): 27.3 ± 0.4 mN/m
2 | CCCCCCCCCC(=O)[O-].CCCCCCCCCCCCCC[P+](CCCCCC)(CCCCCC)CCCCCC [trihexyltetradecylphosphonium decanoate] | 1.47754 ± 0.00037 | 1.47586 ± 0.00037 | 1.47413 ± 0.00037 | 1.47242 ± 0.00037 | 1.47069 ± 0.00037 | 1.46896 ± 0.00037 | 1.46722 ± 0.00037 | 1.46548 ± 0.00037 | 1.46341 ± 0.00037 | 1.46165 ± 0.00037 | 1.46002 ± 0.00037 | 1.45828 ± 0.00037 | 1.4566 ± 0.00037 | 1.45497 ± 0.00037 | 1.45327 ± 0.00037 | 27.8 ± 0.4 | surface tension liquid-gas ([1]; 298 K): 29 ± 0.4 mN/m; surface tension liquid-gas ([1]; 307.9 K): 28.5 ± 0.4 mN/m; surface tension liquid-gas ([1]; 328.5 K): 27.2 ± 0.4 mN/m; surface tension liquid-gas ([1]; 338 K): 26.6 ± 0.4 mN/m; surface tension liquid-gas ([1]; 343 K): 26.2 ± 0.4 mN/m
3 | CCCCCCCCCCCCCC[P+](CCCCCC)(CCCCCC)CCCCCC.[Cl-] [trihexyl(tetradecyl)phosphonium chloride] | 1.48794 ± 0.00037 | 1.48635 ± 0.00037 | 1.48471 ± 0.00037 | 1.48309 ± 0.00037 | 1.48142 ± 0.00037 | 1.47973 ± 0.00037 | 1.47796 ± 0.00037 | 1.4757 ± 0.00037 | 1.47387 ± 0.00037 | 1.4721 ± 0.00037 | 1.47029 ± 0.00037 | 1.46854 ± 0.00037 | 1.46677 ± 0.00037 | 1.46504 ± 0.00037 | 1.4634 ± 0.00037 | 29.3 ± 0.3 | surface tension liquid-gas ([1]; 298.6 K): 30.6 ± 0.4 mN/m; surface tension liquid-gas ([1]; 308 K): 30.1 ± 0.3 mN/m; surface tension liquid-gas ([1]; 328.1 K): 28.6 ± 0.3 mN/m; surface tension liquid-gas ([1]; 338.3 K): 27.8 ± 0.3 mN/m; surface tension liquid-gas ([1]; 343.3 K): 27.5 ± 0.4 mN/m
4 | CC(CC(C)(C)C)CP(=O)([O-])CC(C)CC(C)(C)C.CCCCCCCCCCCCCC[P+](CCCCCC)(CCCCCC)CCCCCC + O | – | – | – | – | – | – | – | – | – | – | – | – | – | – | – | – | refractive index ([3]; 298.15 K, w2 = 0.158): 1.45864 ± 0.00037; refractive index ([3]; 303.15 K, w2 = 0.158): 1.45697 ± 0.00037; refractive index ([3]; 308.15 K, w2 = 0.158): 1.45534 ± 0.00037; refractive index ([3]; 313.15 K, w2 = 0.158): 1.45363 ± 0.00037; refractive index ([3]; 318.15 K, w2 = 0.158): 1.45192 ± 0.00037; refractive index ([3]; 323.15 K, w2 = 0.158): 1.45019 ± 0.00037; refractive index ([3]; 328.15 K, w2 = 0.158): 1.44849 ± 0.00037; refractive index ([3]; 333.15 K, w2 = 0.158): 1.44683 ± 0.00037; refractive index ([3]; 338.15 K, w2 = 0.158): 1.44523 ± 0.00037; refractive index ([3]; 343.15 K, w2 = 0.158): 1.44374 ± 0.00037; refractive index ([3]; 348.15 K, w2 = 0.158): 1.4424 ± 0.00037; refractive index ([3]; 353.15 K, w2 = 0.158): 1.44126 ± 0.00037; surface tension liquid-gas ([4]; 297.9 K, w2 = 0.158): 28.32 ± 0.33 mN/m; surface tension liquid-gas ([4]; 307.9 K, w2 = 0.158): 27.7 ± 0.32 mN/m; surface tension liquid-gas ([4]; 317.9 K, w2 = 0.158): 27.24 ± 0.32 mN/m; surface tension liquid-gas ([4]; 328.8 K, w2 = 0.158): 26.41 ± 0.31 mN/m; surface tension liquid-gas ([4]; 339 K, w2 = 0.158): 25.6 ± 0.3 mN/m; surface tension liquid-gas ([4]; 343.4 K, w2 = 0.158): 25.34 ± 0.3 mN/m
5 | CCCCCCCCCCCCCC[P+](CCCCCC)(CCCCCC)CCCCCC.[Br-] [tetradecyltrihexylphosphonium bromide] | 1.49456 ± 0.00037 | 1.49295 ± 0.00037 | 1.49139 ± 0.00037 | 1.48977 ± 0.00037 | 1.48814 ± 0.00037 | 1.48654 ± 0.00037 | 1.4849 ± 0.00037 | 1.4833 ± 0.00037 | 1.48167 ± 0.00037 | 1.47999 ± 0.00037 | 1.47834 ± 0.00037 | 1.47677 ± 0.00037 | 1.47511 ± 0.00037 | 1.47346 ± 0.00037 | 1.47189 ± 0.00037 | 29.6 ± 0.3 | surface tension liquid-gas ([1]; 298.2 K): 30.9 ± 0.4 mN/m; surface tension liquid-gas ([1]; 308.5 K): 30.2 ± 0.4 mN/m; surface tension liquid-gas ([1]; 328.8 K): 28.7 ± 0.4 mN/m; surface tension liquid-gas ([1]; 338.6 K): 28.1 ± 0.3 mN/m; surface tension liquid-gas ([1]; 343.4 K): 27.9 ± 0.4 mN/m
6 | CCCCCCCCCC(=O)[O-].CCCCCCCCCCCCCC[P+](CCCCCC)(CCCCCC)CCCCCC [trihexyltetradecylphosphonium decanoate] + O | – | – | – | – | – | – | – | – | – | – | – | – | – | – | – | – | refractive index ([3]; 298.15 K, w2 = 0.1526): 1.45342 ± 0.00037; refractive index ([3]; 303.15 K, w2 = 0.1526): 1.45194 ± 0.00037; refractive index ([3]; 308.15 K, w2 = 0.1526): 1.45041 ± 0.00037; refractive index ([3]; 313.15 K, w2 = 0.1526): 1.44877 ± 0.00037; refractive index ([3]; 318.15 K, w2 = 0.1526): 1.44699 ± 0.00037; refractive index ([3]; 323.15 K, w2 = 0.1526): 1.44498 ± 0.00037; refractive index ([3]; 328.15 K, w2 = 0.1526): 1.4431 ± 0.00037; refractive index ([3]; 333.15 K, w2 = 0.1526): 1.44129 ± 0.00037; refractive index ([3]; 338.15 K, w2 = 0.1526): 1.43948 ± 0.00037; refractive index ([3]; 343.15 K, w2 = 0.1526): 1.43763 ± 0.00037; refractive index ([3]; 348.15 K, w2 = 0.1526): 1.43579 ± 0.00037; refractive index ([3]; 353.15 K, w2 = 0.1526): 1.43397 ± 0.00037; surface tension liquid-gas ([4]; 298.4 K, w2 = 0.1526): 29.1 ± 0.4 mN/m; surface tension liquid-gas ([4]; 307.7 K, w2 = 0.1526): 28.5 ± 0.4 mN/m; surface tension liquid-gas ([4]; 318 K, w2 = 0.1526): 27.7 ± 0.4 mN/m; surface tension liquid-gas ([4]; 328.9 K, w2 = 0.1526): 26.8 ± 0.4 mN/m; surface tension liquid-gas ([4]; 339.2 K, w2 = 0.1526): 26 ± 0.4 mN/m; surface tension liquid-gas ([4]; 344.3 K, w2 = 0.1526): 25.6 ± 0.4 mN/m
7 | CCCCCCCCCCCCCC[P+](CCCCCC)(CCCCCC)CCCCCC.N#C[N-]C#N [tetradecyl(trihexyl)phosphonium dicyanamide] | 1.48861 ± 0.00037 | 1.48706 ± 0.00037 | 1.48545 ± 0.00037 | 1.48387 ± 0.00037 | 1.48228 ± 0.00037 | 1.48064 ± 0.00037 | 1.47902 ± 0.00037 | 1.47744 ± 0.00037 | 1.47585 ± 0.00037 | 1.47421 ± 0.00037 | 1.47252 ± 0.00037 | 1.4709 ± 0.00037 | 1.46926 ± 0.00037 | 1.46767 ± 0.00037 | 1.46599 ± 0.00037 | 30.9 ± 0.4 | surface tension liquid-gas ([1]; 298.4 K): 32.3 ± 0.4 mN/m; surface tension liquid-gas ([1]; 308 K): 31.6 ± 0.4 mN/m; surface tension liquid-gas ([1]; 328.4 K): 30.3 ± 0.4 mN/m; surface tension liquid-gas ([1]; 339.2 K): 29.7 ± 0.4 mN/m; surface tension liquid-gas ([1]; 343.4 K): 29.4 ± 0.3 mN/m
